Reference: US20240174690A1, “ANNULATED 2-AMINO-3-CYANO THIOPHENES AND DERIVATIVES FOR THE TREATMENT OF CANCER” (BOEHRINGER INGELHEIM INTERNATIONAL GMBH, priority 2021, published 2024)

How the values were obtained:
KRAS (G12D)::SOS1 = KRAS (G12D)::SOS1 (Homo sapiens (Human), UniProt P01116, G12D); assay: KRAS::SOS1 AlphaScreen binding assay, KRAS G12D
Summary of the method: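 KRAS 1-169 (biotinylated avi-tag) with GST-SOS1 564-1049 and 10 µM GDP in PBS/0.1% BSA/0.05% Tween 20: WT and G13D 10 nM each with 10 nM SOS1; G12D 10 nM and G12C 7.5 nM with 5 nM SOS1. After 30 min, glutathione acceptor/streptavidin donor beads were added for 60 min at RT in the dark, then AlphaScreen read; 4-parameter IC50.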

[1] = test system: KRAS G12D-dependent Ba/F3 cells; assay: Ba/F3 proliferation assay, KRAS G12D; type: cell-based; conditions: Mus musculus, BaF3, 72 h, AlamarBlue
Summary of the method: (§1)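 Proliferation of mutant-KRAS-driven Ba/F3 cells cultured without IL-3 is followed with AlamarBlue after compound addition. Curves are fitted from duplicate wells.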

[2] = test system: KRAS G12C-dependent Ba/F3 cells; assay: Ba/F3 proliferation assay, KRAS G12C; type: cell-based; conditions: Mus musculus, BaF3, 72 h, AlamarBlue
Summary of the method: as §1

[3] = test system: KRAS G12V-dependent Ba/F3 cells; assay: Ba/F3 proliferation assay, KRAS G12V; type: cell-based; conditions: Mus musculus, BaF3, 72 h, AlamarBlue;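 further: proliferation IC50 in KRAS G12V-dependent Ba/F3 cells read by AlamarBlue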
Summary of the method: as §1

SK-CO-1 cells = assay: SK-CO-1 CTG proliferation assay (120 h) (CRC, G12V); type: cell-based; conditions: Homo sapiens; SK-CO-1 cells (CRC, G12V), CTG 120 h
Summary of the method: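 Compound exposure lasted 120 h in KRAS G12V SK-CO-1 cells seeded overnight at 500 cells/well in 10% FCS EMEM. CellTiter-Glo RLU normalised to DMSO wells gave percent viability, and a four-parameter model fit yielded IC50.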

KRAS (G12D)::SOS1, sequence (P01116 other isoform, or with tags, fused parts or gaps G12D): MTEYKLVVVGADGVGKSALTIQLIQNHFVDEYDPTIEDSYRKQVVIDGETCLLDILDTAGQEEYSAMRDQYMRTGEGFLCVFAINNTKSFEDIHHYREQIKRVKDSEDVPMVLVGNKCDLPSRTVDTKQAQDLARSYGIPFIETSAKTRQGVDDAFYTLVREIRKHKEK

| Compound | IC50 (KRAS (G12D)::SOS1) [nM] | IC50 [1] [nM] | IC50 [2] [nM] | IC50 [3] [nM] | IC50 (SK-CO-1 cells) [nM] |
| --- | --- | --- | --- | --- | --- |
| C[C@H](Oc1cc(-n2cncc3ccnc2-3)nc(-c2onc3c2CCC[C@@]32CCCc3sc(N)c(C#N)c32)n1)[C@@H]1CCCN1C [I-14] | 3 | 18 | 15 | 7 | 71 |
| C[C@H](Oc1cc(-n2cncn2)nc(-c2onc3c2CCC[C@@]32CCCc3sc(N)c(C#N)c32)n1)[C@@H]1CCCN1C [I-18] | 3 | 22 | 11 | 8 | 236 |
| CC(=O)N1CCN(c2cc(O[C@@H](C)[C@@H]3CCCN3C)nc(-c3noc4c3CCC[C@@]43CCCc4sc(N)c(C#N)c43)n2)CC12CC2 [II-178] | 2 | 85 | 31 | 32 | 149 |
| C[C@H](Oc1cc(N2CCN(C)C3(COC3)C2)nc(-c2noc3c2CCC[C@@]32CCCc3sc(N)c(C#N)c32)n1)[C@@H]1C[C@@H](F)CN1C [II-148] | 1 | 14 | 99 | 162 | 779 |
| CC(C)N1CCCN(c2cc(-c3ccn(C)n3)nc(-c3noc4c3CCC[C@@]43CCCc4sc(N)c(C#N)c43)n2)[C@@H](C)C1 [II-170] | 9 | 89 | 26 | 17 | 121 |
| CO[C@@H]1C[C@@H]([C@H](C)Oc2cc(-c3cnn(C)n3)nc(-c3onc4c3CCC[C@@]43CCCc4sc(N)c(C#N)c43)n2)N(C)C1 [I-17] | 15 | 77 | 40 | 23 | 357 |
| C[C@H](Oc1cc(-n2cc3c(n2)CNC3)nc(-c2noc3c2CCC[C@@]32CCCc3sc(N)c(C#N)c32)n1)[C@@H]1CCCN1C [II-168] | 1 | 27 | 62 | 26 | 154 |
| CC(C)N1CCCN(c2cc(-n3ccnc3)nc(-c3noc4c3CCC[C@@]43CCCc4sc(N)c(C#N)c43)n2)[C@@H](C)C1 [II-169] | 9 | 285 | 107 | 61 | 316 |
| C[C@H](Oc1cc(N2CCN(C)C3(CC3)C2)nc(-c2noc3c2CCC[C@@]32CCCc3sc(N)c(C#N)c32)n1)[C@@H]1C[C@@H](F)CN1C [II-149] | 1 | 18 | 333 | 412 | 1980 |
| C[C@H](Oc1cc(-n2cc(-c3cncs3)nn2)nc(-c2noc3c2CCC[C@@]32CCCc3sc(N)c(C#N)c32)n1)[C@@H]1CCCN1C [II-125] | 6 | 109 | 17 | 16 | 121 |
| C[C@H](Oc1cc(-n2cc3c(n2)CNC3)nc(-c2noc3c2CCC[C@@]32CCCc3sc(N)c(C#N)c32)n1)[C@@H]1C[C@@H](F)CN1C [II-154] | 1 | 82 | 245 | 135 | 2120 |
| C[C@H](Oc1cc(N2CCN(C)C3(CCOC3)C2)nc(-c2noc3c2CCC[C@@]32CCCc3sc(N)c(C#N)c32)n1)[C@@H]1C[C@@H](F)CN1C (stereo partly shown) [II-151] | 2 | 53 | 393 | 655 | 1360 |
| CC(C)[C@@H]1CN(c2cc(O[C@@H](C)[C@@H]3CCCN3C)nc(-c3noc4c3CCC[C@@]43CCCc4sc(N)c(C#N)c43)n2)CCN1 [II-166] | 1 | 154 | 386 | 430 | 551 |
| CO[C@@H]1C[C@@H]([C@H](C)Oc2cc(N3CCN(C)C4(COC4)C3)nc(-c3noc4c3CCC[C@@]43CCCc4sc(N)c(C#N)c43)n2)N(C)C1 [II-153] | 2 | 126 | 1560 | 2380 | 872 |
| C[C@H](Oc1cc(-c2ccn([C@H]3CCOC3)n2)nc(-c2noc3c2CCC[C@@]32CCCc3sc(N)c(C#N)c32)n1)[C@@H]1CCCN1C [II-127] | 3 | 109 | 13 | 13 | 90 |
| C[C@H](Oc1cc(N2CCN(C)C3(CC3)C2)nc(-c2noc3c2CCC[C@@]32CCCc3sc(N)c(C#N)c32)n1)[C@@H]1CCCN1C [II-171] | 1 | 10 | 232 | 426 | 1530 |
| C[C@H](Oc1cc(N2C[C@@H]3[C@@H](N)[C@@H]3C2)nc(-c2noc3c2CCC[C@@]32CCCc3sc(N)c(C#N)c32)n1)[C@@H]1CCCN1C [II-167] | 2 | 614 | 884 | 879 | 1340 |
| C[C@H](Oc1cc([C@H]2CCNC2)nc(-c2noc3c2CCC[C@@]32CCCc3sc(N)c(C#N)c32)n1)[C@@H]1CCCN1C [II-163] | 1 | 97 | 373 | 322 | 649 |
| COc1c(O[C@@H](C)[C@@H]2CCCN2C)nc(-c2noc3c2CCC[C@@]32CCCc3sc(N)c(C#N)c32)nc1-n1ccc(C(N)=O)n1 [II-159] | 6 | 366 | 147 | 93 | 131 |
| C[C@H](Oc1cc(-c2cccc(C(N)=O)c2)nc(-c2noc3c2CCC[C@@]32CCCc3sc(N)c(C#N)c32)n1)[C@@H]1CCCN1C [II-133] | 6 | 248 | 33 | 19 | 89 |
| C[C@H](Oc1cc(N2CCNC3(CC3)C2)nc(-c2noc3c2CCC[C@@]32CCCc3sc(N)c(C#N)c32)n1)[C@@H]1C[C@@H](F)CN1C [II-165] | 1 | 3 | 109 | 121 | 529 |
| CO[C@@H]1C[C@@H]([C@H](C)Oc2cc(N3CCN(C)C4(CC4)C3)nc(-c3noc4c3CCC[C@@]43CCCc4sc(N)c(C#N)c43)n2)N(C)C1 [II-152] | 3 | 68 | 1290 | 1190 | 955 |

Further lines, results first:

| IC50 (KRAS (G12D)::SOS1) [nM] | IC50 [1] [nM] | IC50 [2] [nM] | IC50 [3] [nM] | IC50 (SK-CO-1 cells) [nM] | Compound |
| --- | --- | --- | --- | --- | --- |
| 8 | 85 | 19 | 6 | 31 | C[C@H](Oc1cc(-n2cc3ccn([C@@H](C)c4ccccn4)c(=O)c3n2)nc(-c2noc3c2CCC[C@@]32CCCc3sc(N)c(C#N)c32)n1)[C@@H]1CCCN1C [II-205] |
| 1 | 47 | 305 | 334 | 1290 | CCN1CCN(c2cc(O[C@@H](C)[C@@H]3C[C@@H](F)CN3C)nc(-c3noc4c3CCC[C@@]43CCCc4sc(N)c(C#N)c43)n2)CC12CC2 [II-185] |
| 1 | 18 | 283 | 387 | 1260 | [2H]C([2H])([2H])N1C[C@H](F)C[C@H]1[C@H](C)Oc1cc(N2CCN(C([2H])([2H])[2H])C3(CC3)C2)nc(-c2noc3c2CCC[C@@]32CCCc3sc(N)c(C#N)c32)n1 [II-207] |
| 1 | 8 | 1 | 1 | 5 | COCCNC(=O)c1ccn(-c2cc(O[C@@H](C)[C@@H]3[C@@H](OC)CCN3C)nc(-c3noc4c3CCC[C@@]43CCCc4sc(N)c(C#N)c43)n2)n1 [II-200] |
| 1 | 6 | 2 | 1 | 4 | CO[C@H]1CCN(C)[C@@H]1[C@H](C)Oc1cc(-n2ccc(C(=O)N[C@@H]3CCOC3)n2)nc(-c2noc3c2CCC[C@@]32CCCc3sc(N)c(C#N)c32)n1 [II-197] |
| 1 | 22 | 4 | 4 | 11 | C[C@H](Oc1cc(-n2ccc(C(=O)N(C)C3COC3)n2)nc(-c2noc3c2CCC[C@@]32CCCc3sc(N)c(C#N)c32)n1)[C@@H]1CCCN1C [II-194] |
| 1 | 63 | 7 | 3 | 11 | C[C@H](Oc1cc(-n2cc3ccn(C4CCOCC4)c(=O)c3n2)nc(-c2noc3c2CCC[C@@]32CCCc3sc(N)c(C#N)c32)n1)[C@@H]1CCCN1C [II-206] |
| 1 | 1 | 98 | 155 | 249 | CO[C@H]1CCN(C)[C@@H]1[C@H](C)Oc1cc(N2CCNC3(CC3)C2)nc(-c2noc3c2CCC[C@@]32CCCc3sc(N)c(C#N)c32)n1 [II-184] |
| 2 | 18 | 3 | 1 | 9 | CO[C@H]1CCN(C)[C@@H]1[C@H](C)Oc1cc(-n2ccc(C(N)=O)n2)nc(-c2noc3c2CCC[C@@]32CCCc3sc(N)c(C#N)c32)n1 [II-201] |
| 1 | 43 | 11 | 6 | 7 | C[C@H](Oc1cc(-n2ccc(-c3cn(CC4(C)COC4)nn3)n2)nc(-c2noc3c2CCC[C@@]32CCCc3sc(N)c(C#N)c32)n1)[C@@H]1CCCN1C [II-213] |
